Test results published in patent publication US20100056615A1, “USE OF TRICYCLIC DITERPENES AND THEIR DERIVATIVES FOR THE TREATMENT, CO-TREATMENT OR PREVENTION OF INFLAMMATORY DISORDERS AND/OR JOINT DISORDERS” (priority 2006, published 2010).

Legend:
Assay in all cases: Gene expression in human chondrocyte cells (SW1353), quantitative real-time PCR
Format in all cases: cell-based
Conditions in all cases: 12.5 μM compound, SW1353 chondrocytes, IL-1β treated
Human MMP-3 = tested on: Human MMP-3
Protocol: The cells were treated with IL-1β, which is one of the natural mediators that induce cartilage breakdown and is detected in substantial amounts in osteoarthritic cartilage tissues and cells derived thereof. Treatment of cells with IL-1β triggers the expression of genes that are involved in catabolic events, such as MMPs. Also, treatment of the cells with IL-1β reduces the collagen expression levels (compared to untreated cells)
Chondrocytes (SW1353; purchased from the […] [ATCC]) were grown in cell culture medium according to the instructions from ATCC. For experimental treatments, cells were seeded into 6-well plates and cultured for two days until they reached confluence. Total cellular RNA was extracted from cultured cells and reverse-transcribed as described by Richard et al. Mol. Nutr. Food Res. 49, 431-442, 2005. Expression levels of distinct genes were determined by quantitative real-time PCR as described in Richard et al. Mol. Nutr. Food Res. 49, 431-442, 2005.

Human collagen I = tested on: Human collagen I
Protocol: (§1) The cells were treated with IL-1β, which is one of the natural mediators that induce cartilage breakdown and is detected in substantial amounts in osteoarthritic cartilage tissues and cells derived thereof. Treatment of cells with IL-1β triggers the expression of genes that are involved in catabolic events, such as MMPs.
(§2) Chondrocytes (SW1353; purchased from the […] [ATCC]) were grown in cell culture medium according to the instructions from ATCC. For experimental treatments, cells were seeded into 6-well plates and cultured for two days until they reached confluence. Total cellular RNA was extracted from cultured cells and reverse-transcribed as described by Richard et al. Mol. Nutr. […] Expression levels of distinct genes were determined by quantitative real-time PCR as described in Richard et al. Mol. Nutr.

Aggrecan = tested on: Aggrecan
Protocol: as §1, §2

Human MMP-1 = tested on: Human MMP-1
Protocol: as §1, §2

Human MMP-13 = tested on: Human MMP-13
Protocol: as §1, §2

Human collagen II = tested on: Human collagen II
Protocol: as §1, §2

Row | SMILES | Human MMP-3 gene expression level relative to cells treated without the compound (Human MMP-3) [%] | Human collagen I gene expression level relative to cells treated without the compound (Human collagen I) [%] | Aggrecan gene expression level relative to cells treated without the compound (Aggrecan) [%] | Human MMP-1 gene expression level relative to cells treated without the compound (Human MMP-1) [%] | Human MMP-13 gene expression level relative to cells treated without the compound (Human MMP-13) [%] | Human collagen II gene expression level relative to cells treated without the compound (Human collagen II) [%]
1 | CC(C)c1cc2c(c(O)c1O)C1=C(CC2)C(C)(C)CCC1=O [Sageone (VII), Sageone] | 112 | 120 | 152 | 3 | 36 | –
2 | COc1c(C(C)C)cc2c(c1O)[C@@]1(C(=O)O)CCCC(C)(C)[C@@H]1CC2 [Carnosic acid-12-methyl ether (XII), Carnosic acid 12-methylether] | 69 | – | 123 | 94 | 60 | 139
